Experimental data published in patent US12502344B2, “Deodorants comprising alkylamido and alkenylamido-morpholinium compositions” (Colonial Chemical, Inc., priority 2021, dated 2025).

Assay: Deodorization evaluation, forced-preference panel test of acetic acid malodor on cotton balls
Conditions: approx. 50 mg acetic acid on cotton ball in closed 32 oz jar; sprayed with 0.25 g, 0.5 g, 2.0 g and 5 g of approx. 0.8% by weight active in water; equilibrated 2 hrs; ten panelists; FIG. 1
Protocol: Deodorization Evaluations. Forced Preference Tests.
In the deodorization studies, two substances were tested for their ability to deodorize malodor: 1) Soyaethyl Morpholinium Ethosulfate (U.S. Pat. No. 4,851,214); and 2) Soyamidopropyl Ethylmorpholinium Ethosulfate (from this invention). These two products are Products 1 and 2, respectively, in FIG. 1. Both materials contain a quaternized morpholinium functionality within the deodorant molecule. All test formulations were approximately 0.8% by weight of active deodorizer/sequestrant in water.
Both products were tested as follows: Approximately 50 milligrams of acetic acid were placed on cotton balls (approximately 0.63 g in weight). The cotton balls were placed in 32 oz plastic jars, one per jar, and the lids were screwed on. After equilibrating for 4 hours the cotton balls were sprayed with predetermined amounts (0.25 g, 0.5 g, 2.0 g and 5 g) of deodorizing spray formulations and placed back in closed containers where they equilibrated for 2 hrs. In forced-preference testing, ten panelists were asked to open each jar and rate each on a scale from 1 to 10 with 10 being the highest level of acetic acid detected. The results of those ratings appear in FIG. 1 where the ratings given for each test substance is graphed versus the weight in grams of deodorizing formulations that had been applied to each cotton ball. […]

Molecule | perceivable malodor (odor rating on a scale from 1 to 10, 10 being the highest level of acetic acid detected)
CCCCCCCC/C=C\CCCCCCCC[N+]1(CC)CCOCC1 [Product 1, Soyaethyl Morpholinium Ethosulfate] | reduced the perceivable malodor in a concentration-dependent fashion
Soyamidopropyl Ethylmorpholinium Ethosulfate [Product 2] | reduced the perceivable malodor in a concentration-dependent fashion
